Laboratory results reported in article PMC7395068, “The evolution of strategies to minimise the risk of human drug-induced liver injury (DILI) in drug discovery and development” (Archives of Toxicology, 2020).
Where two headings read alike, the source gives them in different places.

Legend:
[1] = Plasma free fraction (fu) and unbound Cmax (Cmax,u); type: in vitro ADME, human; details: unbound plasma Cmax
[2] = cited from earlier work
[3] = tested on: HepG2 cells; details: cited from earlier work
[4] = tested on: PHH; details: cited from earlier work
[5] = tested on: hLiMTs; details: cited from earlier work
[6] = tested on: PHH spheroids; details: cited from earlier work
[7] = tested on: HepG2 C3A spheroid, BSEP, Glu/Gal in HepG2 cells, bioactivation; details: cited from earlier work
[8] = read-out: Human plasma Cmax; total plasma Cmax.tot, median of 9 literature references; cited from earlier work
[9] = plasma free fraction; cited from earlier work
[10] = cited from earlier work; remark: listed apart in the source
[11] = tested on: THLE-Null and THLE-3A4 cells; details: In vitro Assay; ref Gustafsson 2014; cited from earlier work
[12] = tested on: isolated mouse liver mitochondria; details: In vitro Assay; ref Porceddu 2012; cited from earlier work
[13] = tested on: rBsep; details: In vitro Assay; ref Dawson 2012; cited from earlier work
[14] = tested on: hLiMTs; experiment: Combined HCI (HCS) and cellular ATP 3D assay in hLiMTs; details: for AC50: Homo sapiens
[15] = tested on: HepaRG spheroids; experiment: Combined HCI (HCS) and cellular ATP 3D assay in HepaRG spheroids; details: for AC50: Homo sapiens
[16] = In vitro Assay, ref Proctor 2017
[17] = Microtissue model structural based (HCI), combined HCS and ATP, MEC < 25 × Cmax.tot cut-off

Clc1ccccc1CN1CCc2sccc2C1 [ticlopidine]
115 µM: AC50 ([14]; read-out: HCS endpoint AC50)
+ve (<10 uM): hLiMTs <10 uM All ([14]; hLiMTs, all endpoints, cut-off <10 uM)
+VE (MEC < 25 × Cmax.tot cut-off): DILI prediction hLiMTs (HCS-MEC) [14, 17] | DILI prediction HepaRG spheroids (HCS-MEC) [15, 17]
vMost-DILI-Concern: DILI severity category ([2]; ref Chen 2016)
Most: DILI severity category (Chen et al. [2016]) ([2]; LTKB DILIrank category, ref Chen et al. 2016) | DILI severity category ([2]; human DILI severity, ref Chen et al.)
60.8 µM: AC50 ([15]; HepaRG, read-out: HCS endpoint AC50)
+VE (IC20 < 20 × Cmax.tot cut-off): hLiMTs ATP <20 x Cmax ([6]; In vitro Assay, ref Vorrink 2018) | DILI in vitro assay prediction, Vorrink (2018) ([6]; PHH spheroids, ATP, 14 days, IC20 < 20 × Cmax.tot, ref Vorrink et al. 2018)
-VE: PHH/100uM, Proctor (2017) ([4]; 2D PHH, ATP, IC50 threshold 100 µM, ref Proctor et al. 2017) | PHH ATP <100uM [4, 16] | hLiMTs/100uM, Proctor (2017) ([5]; hLiMTs, ATP, IC50 threshold 100 µM, ref Proctor et al. 2017)
-ve: hLiMTs <100x Avg Cmaxu HCS ([14]; hLiMTs, HCS endpoints, cut-off <100x Avg Cmaxu) | HepaRG <100x Avg Cmaxu ATP ([15]; HepaRG, ATP endpoint, cut-off <100x Avg Cmaxu) | HepaRG <100x Avg Cmaxu HCS ([15]; HepaRG, HCS endpoints, cut-off <100x Avg Cmaxu) | HepaRG <10 uM All ([15]; HepaRG, all endpoints, cut-off <10 uM) | HepaRG <100x Avg Cmaxu All ([15]; HepaRG, all endpoints, cut-off <100x Avg Cmaxu)
0.020: fu [9]
+VE: DILI +VE (5-8), DILI -VE (-4) ([2]; ref Chen 2016) | Structural based (HCI) ([3]; In vitro Assay, ref Tolosa 2012) | DILI in vitro assay prediction, Tolosa (2012) ([3]; Structural based (HCI), HepG2, ref Tolosa et al. 2012) | Bayesian Machine Learning DILI prediction, Williams (2019) ([7]; Bayesian modeling, ref Williams et al. 2019) | Bayesian Machine Learning ([7]; In vitro Assay, ref Williams 2019) | In vivo DILI ([10]; […]) | In vivo DILI ([10]; ref Dawson 2012) | In vivo DILI ([10]; ref Garside 2014) | In vivo DILI ([10]; ref Gustafsson 2014) | In vivo DILI ([10]; ref Porceddu 2012) | In vivo DILI ([10]; ref Proctor 2017) | In vivo DILI ([10]; ref Tolosa 2012) | In vivo DILI ([10]; ref Vorrink 2018) | In vivo DILI ([10]; ref Williams 2019) | In vivo DILI ([10]; ref Xu 2008) | THLE-Null [11] | in vitro data EC2<=1x Cmax [12] | in vitro data EC20<=2uM [12] | Inhibition of rBsep cutoff<1& cmax u>.2 [13] | Inhibition of rBsep cutoff<3 [13]
0.161 µM: Human plasma Cmax,u [1]
8.07 µM: Cmax [8]
56 µM: AC50 ([15]; HepaRG, read-out: ATP endpoint AC50)
3: Assigned DILI category ([10]; Chen et al. 2016 or literature alignment, ref Chen et al. 2016)
10.7 µM: AC50 ([14]; read-out: ATP endpoint AC50)
+ve: hLiMTs <25x Avg Cmax ATP ([14]; hLiMTs, ATP endpoint, cut-off <25x Avg Cmax) | hLiMTs <25x Avg Cmax HCS ([14]; hLiMTs, HCS endpoints, cut-off <25x Avg Cmax) | hLiMTs <25x Avg Cmax All ([14]; hLiMTs, all endpoints (ATP and HCS), cut-off <25x Avg Cmax) | hLiMTs Cmax max All ([14]; hLiMTs, all endpoints, Cmax max used) | hLiMTs Cmax min All ([14]; hLiMTs, all endpoints, Cmax min used) | HepaRG <25x Avg Cmax ATP ([15]; HepaRG, ATP endpoint, cut-off <25x Avg Cmax) | HepaRG <25x Avg Cmax HCS ([15]; HepaRG, HCS endpoints, cut-off <25x Avg Cmax) | HepaRG <25x Avg Cmax All ([15]; HepaRG, all endpoints (ATP and HCS), cut-off <25x Avg Cmax) | HepaRG Cmax max All ([15]; HepaRG, all endpoints, Cmax max used) | HepaRG Cmax min All ([15]; HepaRG, all endpoints, Cmax min used)
+VE (IC50 threshold of 100 µM): hLiMTs ATP <100uM [5, 16]
+ve (<100x Avg Cmaxu): hLiMTs <100x Avg Cmaxu ATP ([14]; hLiMTs, ATP endpoint, cut-off <100x Avg Cmaxu) | hLiMTs <100x Avg Cmaxu All ([14]; hLiMTs, all endpoints, cut-off <100x Avg Cmaxu)
